From patent US8673977B2, “Choline salts of succinic acid for the treatment of depression, anxiety, schizophrenia, sleep disorder, and epilepsy” (priority 2008, dated 2014)
Where two headings read alike, the source gives them in different places.

Key:
young male CD1 mice [1] = conditions: mean±SEM, scored during 6 min
Description: (A) In the forced swim test, young male CD1 mice, singly housed, were used. Mice were treated i.p. with saline (control) or 25 mg/kg compounds (I) or (II) for 7 days once-a-day and tested at 8th day. In the reference group, mice were treated i.p. with 10 mg/kg Imipramine 30 min prior the swimming test. Forced swim test was done in a glass cylinder 17 cm diameter, water height 13 cm (7 cm to the edge of a cylinder) filled with water at ambient temperature. Animals were scored during 6 min. The latency of the first floating episode was accepted as a measure of forced swim behavior. Statistical analysis was done using ANOVA and Mann-Whitney test as a post-hoc analysis.

Stressed mice = conditions: mean±SEM; stressed mice from Example 2 (i.p. 25 mg/kg for 7 days prior stress); scored during 5 min
Description: (B) In the chronic stress depression model, young male CD1 mice, singly housed, were used. […] Stress procedure was used for 10 days.
Effect of the treatment of anxiety with compounds of the invention was assessed in rodents in light/dark transition test. Stressed mice from the Example 2 were tested in a dark/light box as described by Crawley et al., Pharmacol Biochem Behav 13, 167-70 (1980). Animals were scored during 5 min for (i) total time spent in light box and (ii) number of exits. […] Data are presented in Table 3 as mean±SEM of (i) total time spent in light box and (ii) number of exits.

Rats = conditions: rats pretreated i.p. 25 mg/kg for 7 days once-a-day; at day 8, 10 mg/kg caffeine
Description: Effect of the treatment of sleep disorder (insomnia) with compound II of the present invention was assessed in caffeine-induced model of insomnia. Rats were treated for 7 days once-a-day with i.p. 25 mg/kg compound II or saline (control).

[2] = system: rats raised in social isolation (ISO); conditions: mean±SEM; socially isolated rats, i.p. 25 mg/kg for 7 days once-a-day; 80 dB prepulse, 110 dB pulse, prepulse latency 100 milliseconds
Description: Rats were treated for 7 days once-a-day with i.p. 25 mg/kg compound II or saline (control).

[3] = system: mice with seizures induced by pentylenetetrazol; conditions: i.p. 10 mg/kg for 7 days once-a-day, pentylenetetrazol administered
Description: Effect of the treatment of epilepsy with compounds of the invention was assessed in mice with seizures induced by pentylenetetrazol. Loscher et al., Epilepsy Res 1991, 8:171-189. Mice were treated for 7 days once-a-day with i.p. 10 mg/kg compound II or saline (control). Pentylenetetrazol was administered.

young male CD1 mice [4] = conditions: mean±SEM, n=20
Description: (B) In the chronic stress depression model, young male CD1 mice, singly housed, were used. […] Stress procedure was used for 10 days. In the reference group, mice received Imipramine orally 8 mg/kg per day for 7 days prior the stress and then in a course on entire 10-days-stress-procedure. Animals (n=20 per group) were tested on a sucrose preference at 10th day of the stress procedure. Statistical analysis was done using ANOVA and Mann-Whitney test as a post-hoc analysis. Data are presented in Table 2 as mean±SEM of a percentage of sucrose preference.

[5] = i.p. 25 mg/kg for 7 days once-a-day, tested at 8th day

Row | SMILES | Latency of the first floating episode (young male CD1 mice [1]; [5]) [s] | Number of exits (Stressed mice) | Time (total time spent in light box) (Stressed mice) [s] | sleep onset latency (SOL) after caffeine as compared to vehicle (Rats) | Prepulse inhibition [2] [%] | seizures as compared to control [3] | Sucrose preference (young male CD1 mice [4]; i.p. 25 mg/kg for 7 days once-a-day prior the onset of stress, tested at 10th day of stress) [%] | Latency of the first floating episode (young male CD1 mice [1]; reference group, i.p. 10 mg/kg 30 min prior the swimming test) [s] | Sucrose preference (young male CD1 mice [4]; reference group, orally 8 mg/kg per day for 7 days prior the stress and during 10-days stress, tested at 10th day) [%]
1 | C[N+](C)(C)CCO.O=C([O-])CCC(=O)O [Compound (I), monocholine salt of succinic acid] | 117 ± 18 |  |  |  |  |  |  |  | 
2 | C[N+](C)(C)CCO.C[N+](C)(C)CCO.O=C([O-])CCC(=O)[O-] [Compound (II), dicholine salt of succinic acid] | 140 ± 11 | 4.8 ± 0.6 | 250 ± 11 | caffeine did not prolonged SOL | 51 ± 9 | significantly decreases seizures | 72 ± 3 |  | 
3 | CN(C)CCCN1c2ccccc2CCc2ccccc21 [Imipramine, reference compound] |  |  |  |  |  |  |  | 60 ± 26 | 75 ± 4
